Results reported in patent US20150176022A1, “HERBICIDE-RESISTANT SUNFLOWER PLANTS, POLYNUCLEOTIDES ENCODING HERBICIDE=RESISTANT ACETO HYDROXY ACID SYNTHASE LARGE SUBUNIT PROTEINS, AND METHODS OF USE” (priority 2013, published 2015).

Legend:
Assay in all cases: Greenhouse whole-plant imazapir dose response (Example 8)
Format in all cases: in vivo, Helianthus annuus
[1] = test system: sunflower GIM 5-7 (Manteiner Line, A205V); conditions: GIM5-7, 14 DAT
Protocol: (§1) A greenhouse study was conducted to quantify and contrast the imazapir sensitivity of the mutants A122T and A205V in different genetic backgrounds at the whole plant level in sunflower. Seeds of the different sunflower lines that were used in this study were obtained under field conditions.
(§2) Seeds were sown in Petri dishes and, after germination, plantlets were transplanted to pots of 10 cm of diameter in a potting media consisting of equal parts of vermiculite, soil and sand. Plants were grown in a greenhouse under natural light conditions supplemented with 400 W sodium halide lamps to provide a 16 hrs daylength. Day/night temperatures were 25 and 20° C., respectively. At the V2 stage 10 plants of each genotype were randomly assigned to each treatment consisting of […] imazapir doses (0, 40, 80, 160, 240, 320, 400 and 480 g ai/ha), and a zero-time biomass determination. Experiment was arranged as a randomized block design with a full factorial (sunflower line×treatment) arrangement of treatments and 10 replications.
(§3) On the day of herbicide application ten plants of each genotype were cut at the cotyledonal node and dried at 60° C. for 48 hrs zero-time for dried weight determination. […] Height was determined as the distance between the cotyledonal node and the apex of each plant. For root biomass determination, each plant was taken from the pot and the potting media was washed out from the roots. Above ground biomass data from each line were converted to biomass accumulation after application by subtracting the appropriate average zero-time biomass from each sample. Dry biomass data were converted to percentages of the untreated control plants within each line to allow direct comparisons between groups.

[2] = test system: sunflower TH9 (Hybrid, A205V); conditions: 14 DAT
Protocol: as §1, §2, §3

[3] = test system: sunflower TH12 (Restorer Line, A122T); conditions: 14 DAT
Protocol: as §1, §2, §3

[4] = test system: sunflower GM1606 (Manteiner Line, A122T); conditions: 14 DAT
Protocol: as §1, §2, §3

[5] = test system: sunflower TH6 (Hybrid, A122T); conditions: 14 DAT
Protocol: as §1, §2, §3

SMILES: CC(C)C1(C)N=C(c2ncccc2C(=O)O)NC1=O (stereo not drawn) [imazapir, imazapyr]
- biomass accumulation (dry biomass, % of untreated) ([1]; 0.5× (40 g ai/ha)): 92.9%
- plant height (% of untreated) ([1]; 0.5× (40 g ai/ha)): 79.1%
- root dry weight (% of untreated) ([1]; 0.5× (40 g ai/ha)): 79.2%
- biomass accumulation (dry biomass, % of untreated) ([1]; 1× (80 g ai/ha)): 75.1%
- plant height (% of untreated) ([1]; 1× (80 g ai/ha)): 76.7%
- root dry weight (% of untreated) ([1]; 1× (80 g ai/ha)): 56.3%
- biomass accumulation (dry biomass, % of untreated) ([1]; 2× (160 g ai/ha)): 55.1%
- plant height (% of untreated) ([1]; 2× (160 g ai/ha)): 57.7%
- root dry weight (% of untreated) ([1]; 2× (160 g ai/ha)): 40.6%
- biomass accumulation (dry biomass, % of untreated) ([1]; 3× (240 g ai/ha)): 45.6%
- plant height (% of untreated) ([1]; 3× (240 g ai/ha)): 55.3%
- root dry weight (% of untreated) ([1]; 3× (240 g ai/ha)): 40.2%
- biomass accumulation (dry biomass, % of untreated) ([1]; 4× (320 g ai/ha)): 31.8%
- plant height (% of untreated) ([1]; 4× (320 g ai/ha)): 27.3%
- root dry weight (% of untreated) ([1]; 4× (320 g ai/ha)): 34.0%
- biomass accumulation (dry biomass, % of untreated) ([1]; 5× (400 g ai/ha)): 34.2%
- plant height (% of untreated) ([1]; 5× (400 g ai/ha)): 37.2%
- root dry weight (% of untreated) ([1]; 5× (400 g ai/ha)): 48.5%
- biomass accumulation (dry biomass, % of untreated) ([1]; 6× (480 g ai/ha)): 36.8%
- plant height (% of untreated) ([1]; 6× (480 g ai/ha)): 30.0%
- root dry weight (% of untreated) ([1]; 6× (480 g ai/ha)): 43.1%
- Phytotoxicity Index ([2]; 0.5× (40 g ai/ha)): 0
- biomass accumulation (dry biomass, % of untreated) ([2]; 0.5× (40 g ai/ha)): 91.7%
- plant height (% of untreated) ([2]; 0.5× (40 g ai/ha)): 100.0%
- root dry weight (% of untreated) ([2]; 0.5× (40 g ai/ha)): 81.5%
- Phytotoxicity Index ([2]; 1× (80 g ai/ha)): 0
- biomass accumulation (dry biomass, % of untreated) ([2]; 1× (80 g ai/ha)): 81.7%
- plant height (% of untreated) ([2]; 1× (80 g ai/ha)): 100.0%
- root dry weight (% of untreated) ([2]; 1× (80 g ai/ha)): 84.9%
- Phytotoxicity Index ([2]; 2× (160 g ai/ha)): 1.6
- biomass accumulation (dry biomass, % of untreated) ([2]; 2× (160 g ai/ha)): 54.7%
- plant height (% of untreated) ([2]; 2× (160 g ai/ha)): 78.9%
- root dry weight (% of untreated) ([2]; 2× (160 g ai/ha)): 58.8%
- Phytotoxicity Index ([2]; 3× (240 g ai/ha)): 5.1
- biomass accumulation (dry biomass, % of untreated) ([2]; 3× (240 g ai/ha)): 35.7%
- plant height (% of untreated) ([2]; 3× (240 g ai/ha)): 50.0%
- root dry weight (% of untreated) ([2]; 3× (240 g ai/ha)): 34.1%
- Phytotoxicity Index ([2]; 4× (320 g ai/ha)): 8.4
- biomass accumulation (dry biomass, % of untreated) ([2]; 4× (320 g ai/ha)): 25.3%
- plant height (% of untreated) ([2]; 4× (320 g ai/ha)): 38.1%
- root dry weight (% of untreated) ([2]; 4× (320 g ai/ha)): 27.3%
- Phytotoxicity Index ([2]; 5× (400 g ai/ha)): 8.9
- biomass accumulation (dry biomass, % of untreated) ([2]; 5× (400 g ai/ha)): 19.8%
- plant height (% of untreated) ([2]; 5× (400 g ai/ha)): 31.8%
- root dry weight (% of untreated) ([2]; 5× (400 g ai/ha)): 29.9%
- Phytotoxicity Index ([2]; 6× (480 g ai/ha)): 8.9
- biomass accumulation (dry biomass, % of untreated) ([2]; 6× (480 g ai/ha)): 19.5%
- plant height (% of untreated) ([2]; 6× (480 g ai/ha)): 34.7%
- root dry weight (% of untreated) ([2]; 6× (480 g ai/ha)): 22.1%
- Phytotoxicity Index ([3]; 0.5× (40 g ai/ha)): 0.0
- biomass accumulation (dry biomass, % of untreated) ([3]; 0.5× (40 g ai/ha)): 100.0%
- plant height (% of untreated) ([3]; 0.5× (40 g ai/ha)): 100.0%
- root dry weight (% of untreated) ([3]; 0.5× (40 g ai/ha)): 99.4%
- Phytotoxicity Index ([3]; 1× (80 g ai/ha)): 0.0
- biomass accumulation (dry biomass, % of untreated) ([3]; 1× (80 g ai/ha)): 99.1%
- plant height (% of untreated) ([3]; 1× (80 g ai/ha)): 100.0%
- root dry weight (% of untreated) ([3]; 1× (80 g ai/ha)): 100%
- Phytotoxicity Index ([3]; 2× (160 g ai/ha)): 0.0
- biomass accumulation (dry biomass, % of untreated) ([3]; 2× (160 g ai/ha)): 97.0%
- plant height (% of untreated) ([3]; 2× (160 g ai/ha)): 101.8%
- root dry weight (% of untreated) ([3]; 2× (160 g ai/ha)): 100%
- Phytotoxicity Index ([3]; 3× (240 g ai/ha)): 0.0
- biomass accumulation (dry biomass, % of untreated) ([3]; 3× (240 g ai/ha)): 96.1%
- plant height (% of untreated) ([3]; 3× (240 g ai/ha)): 97.0%
- root dry weight (% of untreated) ([3]; 3× (240 g ai/ha)): 100.0%
- Phytotoxicity Index ([3]; 4× (320 g ai/ha)): 0.0
- biomass accumulation (dry biomass, % of untreated) ([3]; 4× (320 g ai/ha)): 84.3%
- plant height (% of untreated) ([3]; 4× (320 g ai/ha)): 92.1%
- root dry weight (% of untreated) ([3]; 4× (320 g ai/ha)): 74.5%
- Phytotoxicity Index ([3]; 5× (400 g ai/ha)): 0.0
- biomass accumulation (dry biomass, % of untreated) ([3]; 5× (400 g ai/ha)): 77.5%
- plant height (% of untreated) ([3]; 5× (400 g ai/ha)): 84.8%
- root dry weight (% of untreated) ([3]; 5× (400 g ai/ha)): 65.0%
- Phytotoxicity Index ([3]; 6× (480 g ai/ha)): 0.5
- biomass accumulation (dry biomass, % of untreated) ([3]; 6× (480 g ai/ha)): 70.7%
- plant height (% of untreated) ([3]; 6× (480 g ai/ha)): 79.8%
- root dry weight (% of untreated) ([3]; 6× (480 g ai/ha)): 57.8%
- biomass accumulation (dry biomass, % of untreated) ([4]; 0.5× (40 g ai/ha)): 100.0%
- plant height (% of untreated) ([4]; 0.5× (40 g ai/ha)): 97.0%
- root dry weight (% of untreated) ([4]; 0.5× (40 g ai/ha)): 100%
- biomass accumulation (dry biomass, % of untreated) ([4]; 1× (80 g ai/ha)): 100.0%
- plant height (% of untreated) ([4]; 1× (80 g ai/ha)): 95.7%
- root dry weight (% of untreated) ([4]; 1× (80 g ai/ha)): 100.0%
- biomass accumulation (dry biomass, % of untreated) ([4]; 2× (160 g ai/ha)): 97.6%
- plant height (% of untreated) ([4]; 2× (160 g ai/ha)): 95.2%
- root dry weight (% of untreated) ([4]; 2× (160 g ai/ha)): 92.5%
- biomass accumulation (dry biomass, % of untreated) ([4]; 3× (240 g ai/ha)): 95.4%
- plant height (% of untreated) ([4]; 3× (240 g ai/ha)): 95.7%
- root dry weight (% of untreated) ([4]; 3× (240 g ai/ha)): 85.2%
- biomass accumulation (dry biomass, % of untreated) ([4]; 4× (320 g ai/ha)): 90.5%
- plant height (% of untreated) ([4]; 4× (320 g ai/ha)): 94.1%
- root dry weight (% of untreated) ([4]; 4× (320 g ai/ha)): 87.0%
- biomass accumulation (dry biomass, % of untreated) ([4]; 5× (400 g ai/ha)): 85.3%
- plant height (% of untreated) ([4]; 5× (400 g ai/ha)): 94.3%
- root dry weight (% of untreated) ([4]; 5× (400 g ai/ha)): 88.1%
- biomass accumulation (dry biomass, % of untreated) ([4]; 6× (480 g ai/ha)): 83.0%
- plant height (% of untreated) ([4]; 6× (480 g ai/ha)): 91.4%
- root dry weight (% of untreated) ([4]; 6× (480 g ai/ha)): 69.5%
- Phytotoxicity Index ([5]; 0.5× (40 g ai/ha)): 0.5
- biomass accumulation (dry biomass, % of untreated) ([5]; 0.5× (40 g ai/ha)): 100%
- plant height (% of untreated) ([5]; 0.5× (40 g ai/ha)): 99.2%
- root dry weight (% of untreated) ([5]; 0.5× (40 g ai/ha)): 100%
- Phytotoxicity Index ([5]; 1× (80 g ai/ha)): 0.5
- biomass accumulation (dry biomass, % of untreated) ([5]; 1× (80 g ai/ha)): 97.2%
- plant height (% of untreated) ([5]; 1× (80 g ai/ha)): 98.6%
- root dry weight (% of untreated) ([5]; 1× (80 g ai/ha)): 98.1%
- Phytotoxicity Index ([5]; 2× (160 g ai/ha)): 0.5
- biomass accumulation (dry biomass, % of untreated) ([5]; 2× (160 g ai/ha)): 97.9%
- plant height (% of untreated) ([5]; 2× (160 g ai/ha)): 100.3%
- root dry weight (% of untreated) ([5]; 2× (160 g ai/ha)): 96.2%
- Phytotoxicity Index ([5]; 3× (240 g ai/ha)): 0.5
- biomass accumulation (dry biomass, % of untreated) ([5]; 3× (240 g ai/ha)): 98.2%
- plant height (% of untreated) ([5]; 3× (240 g ai/ha)): 99.6%
- root dry weight (% of untreated) ([5]; 3× (240 g ai/ha)): 79.3%
- Phytotoxicity Index ([5]; 4× (320 g ai/ha)): 0.5
- biomass accumulation (dry biomass, % of untreated) ([5]; 4× (320 g ai/ha)): 97.8%
- plant height (% of untreated) ([5]; 4× (320 g ai/ha)): 101.0%
- root dry weight (% of untreated) ([5]; 4× (320 g ai/ha)): 78.4%
- Phytotoxicity Index ([5]; 5× (400 g ai/ha)): 0.5
- biomass accumulation (dry biomass, % of untreated) ([5]; 5× (400 g ai/ha)): 85.1%
- plant height (% of untreated) ([5]; 5× (400 g ai/ha)): 87.0%
- root dry weight (% of untreated) ([5]; 5× (400 g ai/ha)): 85.8%
- Phytotoxicity Index ([5]; 6× (480 g ai/ha)): 0.5
- biomass accumulation (dry biomass, % of untreated) ([5]; 6× (480 g ai/ha)): 79.5%
- plant height (% of untreated) ([5]; 6× (480 g ai/ha)): 79.6%
- root dry weight (% of untreated) ([5]; 6× (480 g ai/ha)): 57.3%
